One compound from patent publication US11197856B2, “Bicyclic compounds and methods for their use in treating autism” (priority 2013, dated 2021) can be followed below.

Experiment [1] relates to heterozygous Shank3-deficient mice. As to the kind of experiment: Shank3-deficient mice: male-female social interactions and ultrasonic vocalizations. The class given is in vivo. The conditions noted are these: Shank3-deficient groups; 15 or 60 mg/kg oral b.i.d 14 days; vs placebo. The method, then:
1 to 3 month old wild-type and heterozygous Shank3-deficient mice are divided into 4 treatment groups: placebo treated wild-type, placebo treated Shank3-deficient group and two Shank3-deficient cG-2-AllylP treated groups. The animals are given placebo (water) or cG-2-AllylP formulated in water administered orally, b.i.d for 14 days. cG-2-AllylP is administered at two doses: 15 or 60 mg/kg.
Behavioral assessments are made at several time points, and include analysis of social interactions and ultrasonic social communication, in line with the methodology described by Bozdagi et al. Briefly, male-female social interactions in each treatment group are evaluated. The subject males are group-housed and individually tested in clean cages with clean litter. Each testing session lasts 5 min. […] Videos from the male subjects are subsequently scored by an investigator uninformed of the subject's genotype and treatment group on measures of nose-to-nose sniffing, nose-to-anogenital sniffing and sniffing of other body regions, using Noldus Observer software (Noldus Information Technology, Leesburg, Va., USA). Ultrasonic vocalizations are identified manually by two highly trained investigators blinded to genotype/treatment group information, and summary statistics are calculated using the Avisoft package. […] Data are analysed using an unpaired Student's t-test.

Experiment [2] deals with fmr1-knockout animals. As to the kind of experiment: Sociability: bouts of sniffing a novel mouse. The class given is in vivo, mice. The conditions noted are these: p<0.001. The method, then: Social recognition and social memory in mice were evaluated by the amount of time spent sniffing a novel mouse upon repeated exposures, to induce familiarity, and reinstatement of high levels of sniffing when a novel stimulus animal is introduced. We measured the number of bouts of sniffing in each of the groups of animals.

The test system of experiment [3] is AMPA receptors GluR1. As to the kind of experiment: AMPA glutamate receptor-1 immunohistochemical staining of hippocampus. In kind it is in vivo, male Wistar rats. The method, then: Aged rats (male Wistar rats, 18-20 months old) were divided into four groups: two vehicle-treated (groups 1 and 3) and two G-2-AllylP treated (groups 2 and 4) (all groups n=6-8). Cyclic G-2-AllylP was synthesised by the Department of Medicinal Chemistry and dissolved in normal saline before the treatment. On day 1 a single dose of cyclic G-2-AllylP was given centrally (20 ng/animal, i.c.v.) to the animals in groups 2 and 4; saline was administered to groups 1 and 3. The memory tests using Novel Object Recognition Test started either on day 3 (groups 1 and 2) or 24 (groups 3 and 4) after the treatment. On the completion of the NORT, the rats were killed with an overdose of sodium pentobarbital and were perfused transcardially with normal saline followed by 10% formalin. Tissues collected at day 7 in groups 1 and 2, and at day 28 from groups 3 and 4. The brains were kept in the same fixative for a minimum of 2 days before being processed using a standard paraffin embedding procedure. Briefly, small blocks (10×10×3 mm) of tissue were fixed for up to 24 hrs. The blocks were then infiltrated and embedded with paraffin and cut in ribbons and mounted on slides. […]
The following antibodies were used: • i) primary rabbit antibody to NMDA NR1 subunit, at 1:200 concentration in buffer, incubated for 48 hrs (Chemicon—AB1516), followed by Sigma fluorescent secondary antibody (alexaFluor 394), at 1:200 dilution, incubated for 24 hours at 40C. • ii) primary antibody to AMPA GluR1 subunit, at 1:30 concentration in buffer, incubated for 48 hrs (Chemicon—AB1504) followed by 3,3′-diaminobenzidine (DAB) at 1:200 dilution, incubated for 24 hours at 40C. • iii) Primary antibody to mSynaptophysin (Sigma—S5768), at 1:200 concentration in buffer, followed by DAB at 1:200 dilution, incubated for 24 hours at 40C. • iv) Primary antibody to rKrox-24 (Santa Cruz—catalogue number SC-189) at 1:200 concentration in the buffer, followed by anti-rabbit secondary antibody at concentration of 1:200 dilution, incubated for 24 hours at 40C. • y) Antibodies were detected using light microscopy. […]

In experiment [4] the test system is BCL2. Put plainly: PBBI in rats: BCL2 Western blotting. In kind it is in vivo. The settings on record: 24 hr, 3 and 7 days after PBBI. From the text: The unilateral frontal PBBI model, which mimics the ballistic dynamics of a bullet or fragment wound to the head (Williams, 2003; Williams, 2006), was induced by stereotactic insertion of a custom probe through the right frontal cortex. A temporary cavity was formed by the rapid inflation/deflation (i.e. <40 msec) of an elastic balloon attached to the end of the probe. The PBBI apparatus consisted of a computer-controlled hydraulic pressure generator (Mitre Corp McLean, Va.), a PBBI probe and a stereotaxic frame equipped with a custom-designed probe holder as previously described (Lu, 2009; Williams, 2003). The injury severity was determined by the size of the balloon under control of the computerized hydraulic pressure. The balloon diameter calibrated to 0.63 cm expansion represented 10% of the total rat brain volume thus expressing a 10% PBBI. All surgeries were done under anaesthesia. Groups tested: Sham+vehicle, PBBI+vehicle, PBBI+cG-2-AllylP (30 mg/kg by oral gavage, 30 min post-injury, and again once daily until endpoint). AU procedures were approved by the Institutional Animal Care and Use Committee of WRAIR. Animals were housed in a facility accredited by the AAALAC. […]
Samples were analysed at 24 hr and 3 and 7 days post-injury for all groups (sham+vehicle, PBBI+vehicle, PBBI+cG-2-AllylP). […]

Turning to `C=CC[C@]12CCCN1C(=O)CNC2=O` [cG-2-AllylP, (8aS)-Allyl-hexahydropyrrolo[1,2-a]pyrazine-1,4-dione], the “cumulative duration of total social sniffing” value in experiment [1] is “significant increase in the cumulative duration of total social sniffing”. For the same compound, in experiment [1], the “number of ultrasonic vocalizations” value is “increased number of ultrasonic vocalizations”. Moreover, the bouts of sniffing result in experiment [2] is given as “about 21”. Moreover, the “number of AMPA receptors GluR1” value in experiment [3] (CA1 granular cell layer, day 28) is recorded as “significant increase in the number of AMPA receptors”; in experiment [3] (CA1 stratum oriens, day 28), “significant increase in the number of AMPA receptors”; in experiment [3] (CA3, day 7 or 28, 20 ng/animal i.c.v.), “no change in the number of receptors”. For the same compound, the BCL2 levels result in experiment [4] was “did not significantly alter”.
